These molecules were tested against T1, Cys12 of the KRAS 4B G12C protein (Homo sapiens, UniProt P01116, G12C) (assay: In vitro covalent adduct formation (CAF) assay, LC-MS intact mass). Conditions: 10 uM compound, 60 min.
T1 construct: This protein contained 188 amino acids in total, including an N-terminal 6-Histidine tag; made in house; host or cells: E. coli BL21
Assay type: binding
Procedure, shortened: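 Percent covalent modification from intact-mass LC-MS, by relative free versus adducted protein (adducts within 1 Da of expected mass). Reaction: 10 μM compound with 5 μM E. coli-expressed, GDP-exchanged KRAS 4B G12C in TBS pH 7.4, 4% DMSO, 1 h at 22° C.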

SMILES	% CAF 10 uM @ 60 min
C=CC(=O)N1[C@H](C)CN(c2nc(=O)n3c4c(c(-c5cccc6cnn(C)c56)c(C(F)(F)F)cc24)SC[C@@H]3CN2CCN(CC)CC2)C[C@@H]1C (atropisomer, axis not shown) [Example 1389, (3S,10S)-7-((3S,5R)-4-acryloyl-3,5-dimethylpiperazin-1-yl)-3-((4-ethylpiperazin-1-yl)methyl)-10-(1-methyl-1H-indazol-7-yl)-9-(trifluoromethyl)-2,3-dihydro-5H-[1,4]thiazino[2,3,4-ij]quinazolin-5-one]	69.1%
C=CC(=O)N1CCN(c2nc(=O)n3c4c(c(-c5ccc(F)cc5F)c(C(F)(F)F)cc24)SC[C@@H]3CN2CCN(C3CC3)CC2)CC1 (atropisomer, axis not shown) [Example 1390, (3S,10R)-7-(4-acryloylpiperazin-1-yl)-3-((4-cyclopropylpiperazin-1-yl)methyl)-10-(2,4-difluorophenyl)-9-(trifluoromethyl)-2,3-dihydro-5H-[1,4]thiazino[2,3,4-ij]quinazolin-5-one]	96.7%
C=CC(=O)N1CCN(c2nc(=O)n3c4c(c(-c5ccc(F)cc5F)c(C(F)(F)F)cc24)SC[C@@H]3CN2CCN(C3CC3)CC2)CC1 (atropisomer, axis not shown) [Example 1391, (3S,10S)-7-(4-acryloylpiperazin-1-yl)-3-((4-cyclopropylpiperazin-1-yl)methyl)-10-(2,4-difluorophenyl)-9-(trifluoromethyl)-2,3-dihydro-5H-[1,4]thiazino[2,3,4-ij]quinazolin-5-one]	95.9%
[2H]C([2H])=C([2H])C(=O)N1[C@H](C)CN(c2nc(=O)n3c4c(c(-c5cc(Cl)c(F)cc5F)c(C(F)(F)F)cc24)SC[C@@H]3COC)C[C@@H]1C (atropisomer, axis not shown) [Example 1392, (3S,10S)-7-((3S,5R)-4-(acryloyl-d3)-3,5-dimethylpiperazin-1-yl)-10-(5-chloro-2,4-difluorophenyl)-3-(methoxymethyl)-9-(trifluoromethyl)-2,3-dihydro-5H-[1,4]thiazino[2,3,4-ij]quinazolin-5-one]	64.9%
C=CC(=O)N1CCN(c2nc(=O)n3c4c(c(-c5ccc(F)c6cnn(C)c56)c(C(F)(F)F)cc24)SC[C@@H]3COC)CC1 (atropisomer, axis not shown) [Example 1392a, (3S,10S)-7-(4-acryloylpiperazin-1-yl)-10-(4-fluoro-1-methyl-1H-indazol-7-yl)-3-(methoxymethyl)-9-(trifluoromethyl)-2,3-dihydro-5H-[1,4]thiazino[2,3,4-ij]quinazolin-5-one]	97.2%
[2H]C([2H])=C([2H])C(=O)N1[C@H](C)CN(c2nc(=O)n3c4c(c(-c5cc(Cl)c(F)cc5F)c(C(F)(F)F)cc24)SC[C@@H]3COC)C[C@@H]1C (atropisomer, axis not shown) [Example 1393, (3S,10R)-7-((3S,5R)-4-(acryloyl-d3)-3,5-dimethylpiperazin-1-yl)-10-(5-chloro-2,4-difluorophenyl)-3-(methoxymethyl)-9-(trifluoromethyl)-2,3-dihydro-5H-[1,4]thiazino[2,3,4-ij]quinazolin-5-one]	95.4%
C=CC(=O)N1CCN(c2nc(=O)n3c4c(c(-c5cc(Cl)c(F)cc5F)c(C(F)(F)F)cc24)SCC2(COC2)C3)CC1 (atropisomer, axis not shown) [Example 1396, (R)-8′-(4-acryloylpiperazin-1-yl)-11′-(5-chloro-2,4-difluorophenyl)-10′-(trifluoromethyl)-2′H,4′H,6′H-spiro[oxetane-3,3′-[1,4]thiazepino[2,3-4-ij]quinazolin-6′-one]	95.1%
C=CC(=O)N1CCN(c2nc(=O)n3c4c(c(-c5cc(Cl)c(F)cc5F)c(C(F)(F)F)cc24)SCC2(COC2)C3)CC1 (atropisomer, axis not shown) [Example 1397, (S)-8′-(4-acryloylpiperazin-1-yl)-11′-(5-chloro-2,4-difluorophenyl)-10′-(trifluoromethyl)-2′H,4′H,6′H-spiro[oxetane-3,3′-[1,4]thiazepino[2,3,4-ij]quinazolin]-6′-one]	78.2%
[2H]C([2H])=C([2H])C(=O)N1[C@H](C)CN(c2nc(=O)n3c4c(c(-c5ccc(F)cc5F)c(C(F)(F)F)cc24)SC[C@@H]3COC)C[C@@H]1C (atropisomer, axis not shown) [Example 1404, (3S,10S)-7-((3S,5R)-4-(acryloyl-d3)-3,5-dimethylpiperazin-1-yl)-10-(2,4-difluorophenyl)-3-(methoxymethyl)-9-(trifluoromethyl)-2,3-dihydro-5H-[1,4]thiazino[2,3,4-ij]quinazolin-5-one]	80.9%
[2H]C([2H])=C([2H])C(=O)N1[C@H](C)CN(c2nc(=O)n3c4c(c(-c5ccc(F)cc5F)c(C(F)(F)F)cc24)SC[C@@H]3COC)C[C@@H]1C (atropisomer, axis not shown) [Example 1405, (3S,10R)-7-((3S,5R)-4-(acryloyl-d3)-3,5-dimethylpiperazin-1-yl)-10-(2,4-difluorophenyl)-3-(methoxymethyl)-9-(trifluoromethyl)-2,3-dihydro-5H-[1,4]thiazino[2,3,4-ij]quinazolin-5-one]	88.6%
C=CC(=O)N1[C@H](C)CN(c2nc(=O)n3c4c(c(-c5c(F)ccc6cnn(C)c56)c(C(F)(F)F)cc24)SC[C@@H]3COC)C[C@@H]1C (atropisomer, axis not shown) [Example 1406, (3S,10R)-7-((3S,5R)-4-acryloyl-3,5-dimethylpiperazin-1-yl)-10-(6-fluoro-1-methyl-1H-indazol-7-yl)-3-(methoxymethyl)-9-(trifluoromethyl)-2,3-dihydro-5H-[1,4]thiazino[2,3,4-ij]quinazolin-5-one]	75.9%
C=CC(=O)N1[C@H](C)CN(c2nc(=O)n3c4c(c(-c5cccc6cnn(C)c56)c(C(F)(F)F)cc24)SC[C@@H]3CN2CCN(C3CC3)CC2)C[C@@H]1C (atropisomer, axis not shown) [Example 1411, (3S,10R)-7-((3S,5R)-4-acryloyl-3,5-dimethylpiperazin-1-yl)-3-((4-cyclopropylpiperazin-1-yl)methyl)-10-(1-methyl-1H-indazol-7-yl)-9-(trifluoromethyl)-2,3-dihydro-5H-[1,4]thiazino[2,3,4-ij]quinazolin-5-one]	0%
C=CC(=O)N1[C@H](C)CN(c2nc(=O)n3c4c(c(-c5cccc6cnn(C)c56)c(C(F)(F)F)cc24)SC[C@@H]3CN2CCN(C3CC3)CC2)C[C@@H]1C (atropisomer, axis not shown) [Example 1412, (3S,10S)-7-((3S,5R)-4-acryloyl-3,5-dimethylpiperazin-1-yl)-3-((4-cyclopropylpiperazin-1-yl)methyl)-10-(1-methyl-1H-indazol-7-yl)-9-(trifluoromethyl)-2,3-dihydro-5H-[1,4]thiazino[2,3,4-ij]quinazolin-5-one]	85.4%
C=CC(=O)N1CCN(c2nc(=O)n3c4c(c(-c5c(F)ccc6cnn(C)c56)c(C(F)(F)F)cc24)SC[C@@H]3COC)CC1 (atropisomer, axis not shown) [Example 1416, (3S,10R)-7-(4-acryloylpiperazin-1-yl)-10-(6-fluoro-1-methyl-1H-indazol-7-yl)-3-(methoxymethyl)-9-(trifluoromethyl)-2,3-dihydro-5H-[1,4]thiazino[2,3,4-ij]quinazolin-5-one]	71.3%
C=CC(=O)N1[C@H](C)CN(c2nc(=O)n3c4c(c(-c5cc(Cl)c(F)cc5F)c(C(F)(F)F)cc24)SCC(COC)(COC)C3)C[C@@H]1C (atropisomer, axis not shown) [Example 1420, (S)-8-((3S,5R)-4-acryloyl-3,5-dimethylpiperazin-1yl)-11-(5-chloro-2,4-difluorophenyl)-3,3-bis(methoxymethyl)-10-(trifluoromethyl)-3,4-dihydro-2H,6H-[1,4]thiazepino[2,3,4-ij]quinazolin-6-one]	93%
C=CC(=O)N1[C@H](C)CN(c2nc(=O)n3c4c(c(-c5cc(Cl)c(F)cc5F)c(C(F)(F)F)cc24)SCC(COC)(COC)C3)C[C@@H]1C (atropisomer, axis not shown) [Example 1421, (R)-8-((3S,5R)-4-acryloyl-3,5-dimethylpiperazin-1-yl)-11-(5-chloro-2,4-difluorophenyl)-3,3-bis(methoxymethyl)-10-(trifluoromethyl)-3,4-dihydro-2H,6H-[1,4]thiazepino[2,3,4-ij]quinazolin-6-one]	91%
[2H]C([2H])([2H])OC[C@H]1CSc2c(-c3ccc(F)cc3F)c(C(F)(F)F)cc3c(N4C[C@@H](C)N(C(=O)C=C)[C@@H](C)C4)nc(=O)n1c23 (atropisomer, axis not shown) [Example 1423, (3S,10R)-7-((3S,5R)-4-acryloyl-3,5-dimethylpiperazin-1-yl)-10-(2,4-difluorophenyl)-3-((methoxy-d3)methyl)-9-(trifluoromethyl)-2,3-dihydro-5H-[1,4]thiazino[2,3,4-ij]quinazolin-5-one]	95.1%
[2H]C([2H])([2H])OC[C@H]1CSc2c(-c3ccc(F)cc3F)c(C(F)(F)F)cc3c(N4C[C@@H](C)N(C(=O)C=C)[C@@H](C)C4)nc(=O)n1c23 (atropisomer, axis not shown) [Example 1424, (3S,10S)-7-((3S,5R)-4-acryloyl-3,5-dimethylpiperazin-1-yl)-10-(2,4-difluorophenyl)-3-((methoxy-d3)methyl)-9-(trifluoromethyl)-2,3-dihydro-5H-[1,4]thiazino[2,3,4-ij]quinazolin-5-one]	95.4%

Source: patent US20230107642A1 (Erasca, Inc., priority 2020, published 2023)
